Assay results taken from patent US20210330611A1, “THERAPY FOR NEUROLOGICAL DISEASES/DISORDERS” (priority 2020, published 2021).
Where “and” joins values, the source holds several entries; their conditions need not be identical. Identical values can stand only once. Counter-ions that a name gives are not always drawn. Like-named read-outs stand apart in the source and are kept apart here.

Experiments:
[1] = tested on: fibrin-induced microglia activation; experiment: Image-based assay of fibrin-induced microglia activation (HTS and dose response); type: cell-based, rat; conditions: for inhibition at 10 µM: Rattus norvegicus, Microglia, read-out: Fibrin % inhibition
[2] = tested on: LPS-induced microglia activation; experiment: Image-based assay of LPS-induced microglia activation (HTS and dose response); type: cell-based, rat
[3] = tested on: fibrin- and LPS-induced microglia activation; experiment: cells; type: cell-based, rat
[4] = tested on: primary rat microglia
[5] = primary HTS, 10 μM, fibrin-stimulated primary microglia
[6] = Rattus norvegicus, Microglia, primary HTS, 10 μM, LPS-stimulated primary microglia; read-out: LPS % inhibition
[7] = Rattus norvegicus, Microglia, 48 h, read-out: LPS % inhibition
[8] = Rattus norvegicus, Microglia, read-out: LPS % inhibition
[9] = primary microglia HTS, fibrin stimulation, cell size >800 μm2 as marker of activation
[10] = Rattus norvegicus, Microglia, 48 h; read-out: LPS % inhibition
[11] = classification by fibrin and LPS inhibition in HTS
[12] = primary microglia HTS, fibrin stimulation, compounds at 10 μM
[13] = Rattus norvegicus, Microglia, primary microglia HTS, LPS stimulation, compounds at 10 μM; read-out: LPS % inhibition
[14] = quadrant by fibrin and LPS inhibition, HTS at 10 μM

## C[C@]12CCC(=O)C=C1C=C[C@@H]1[C@@H]2CC[C@@]2(C)[C@H]1CC[C@@]2(O)CCC(=O)O [Canrenoic Acid, Potassium Salt]
[1]; [5]
  inhibition at 10 µM: -8%
[2]; [6]
  inhibition at 10 µM: 8%
[3]; primary HTS, 10 μM
  Quadrant (FIG. 5b): Q4
[4]; rat
  LPS % cell toxicity: 0%

## CC(NC(C)(C)C)C(=O)c1cccc(Cl)c1.Cl (centres unmarked)
[1]; 10 µM
  Fibrin % inhibition: −15%
[2]; 10 µM
  LPS % inhibition: 27%
[3]
  Quadrant (FIG. 5b): Q4
[4]
  LPS % cell toxicity: 2%

## CC(C)NCC(O)COc1ccc(CCOCC2CC2)cc1 (centres unmarked) [Betaxolol]
[3]
  Quadrant (FIG. 5b): Q4
[4]; rat
  LPS % cell toxicity: 0%

## OCCOCCN1CCN(C2=Nc3ccccc3Sc3ccccc32)CC1 [Quetiapine]
[1]
  inhibition at 10 µM: -2%
[2]; [7]
  inhibition at 10 µM: 13%
[3]
  Quadrant (FIG. 5b): Q4
[4]; rat
  LPS % cell toxicity: 0%

## CCCCCCCCCCCCCCCC(=O)NCCO [Palmidrol]
[1]
  inhibition at 10 µM: -40%
[2]; [7]
  inhibition at 10 µM: 7%
[3]
  Quadrant (FIG. 5b): Q4
[4]; rat
  LPS % cell toxicity: 0%

## CCN(CC)CCNC(=O)c1cc(Br)c(N)cc1OC [Bromopride]
[1]; [5]
  inhibition at 10 µM: -2%
[2]; [6]
  inhibition at 10 µM: 4%
[3]; primary HTS, 10 μM
  Quadrant (FIG. 5b): Q4
[4]; rat
  LPS % cell toxicity: 0%

## Cc1ccc(O)c([C@H](CCN(C(C)C)C(C)C)c2ccccc2)c1 [Tolterodine]
[1]
  inhibition at 10 µM: -36%
[2]; [8]
  inhibition at 10 µM: 15%
[3]
  Quadrant (FIG. 5b): Q4
[4]; rat
  LPS % cell toxicity: 0%

## O=C(O[C@H]1CN2CCC1CC2)N1CCc2ccccc2[C@@H]1c1ccccc1 [Solifenacin Succinate]
[1]; [9]
  inhibition at 10 µM: -2%
[2]; [10]
  inhibition at 10 µM: -4%
[3]; [11]
  Quadrant (FIG. 5b): Q4
[4]; rat
  LPS % cell toxicity: 0%

## CCc1cc(C(N)=S)ccn1 [Ethionamide]
[1]
  inhibition at 10 µM: 17%
[2]; [8]
  inhibition at 10 µM: 14%
[3]
  Quadrant (FIG. 5b): Q4
[4]; rat
  LPS % cell toxicity: 0%

## CN1CCN(CCCN2c3ccccc3Sc3ccc(Cl)cc32)CC1 [Prochlorperazine]
[1]
  inhibition at 10 µM: 6%
[2]; [7]
  inhibition at 10 µM: 17%
[4]; rat
  LPS % cell toxicity: 1%

## CN(C)c1nc(N(C)C)nc(N(C)C)n1 [Altretamine]
[1]; [12]
  inhibition at 10 µM: -29%
[2]; [13]
  inhibition at 10 µM: 16%
[3]; [14]
  Quadrant (FIG. 5b): Q4
[4]; rat
  LPS % cell toxicity: 0%

## CCC1NC(=O)c2cc(S(N)(=O)=O)c(Cl)cc2N1 (centres unmarked) [Quinethazone]
[1]; [9]
  inhibition at 10 µM: 15%
[2]; [10]
  inhibition at 10 µM: 17%
[3]; [11]
  Quadrant (FIG. 5b): Q4
[4]; rat
  LPS % cell toxicity: 1%

## CCCc1nn(C)c2c(=O)[nH]c(-c3cc(S(=O)(=O)N4CCN(C)CC4)ccc3OCC)nc12 [Sildenafil, Sildenafil Citrate]
[1]; [9]
  Fibrin % inhibition: 22%
[2]
  LPS % inhibition: 20%
[3]; [11]
  Quadrant (FIG. 5b): Q4
[4]
  LPS % cell toxicity: 0%

## CC(=O)N[C@@H](CS)C(=O)O [Acetylcysteine]
[2]; [13]
  inhibition at 10 µM: 7%
[2]; primary microglia HTS, LPS stimulation, compounds at 10 μM; 10 µM
  LPS % inhibition: 13%
[3]; [14]
  Quadrant (FIG. 5b): Q4
[4]; rat
  LPS % cell toxicity: 0%

## O=NN(CCCl)C(=O)NCCCl [Carmustine]
[1]; [5]
  inhibition at 10 µM: 1%
[2]; [6]
  inhibition at 10 µM: 9%
[3]; primary HTS, 10 μM
  Quadrant (FIG. 5b): Q4
[4]; rat
  LPS % cell toxicity: 0%

## CC(C)NCC(O)COc1cccc2ccccc12 (centres unmarked) [1-(Isopropylamino)-3-(1-Naphthyloxy)-2-Propanol]
[4]; rat
  LPS % cell toxicity: 0%

## Cc1ncc(C[n+]2csc(CCO)c2C)c(N)n1 [Thiamine]
[3]
  Quadrant (FIG. 5b): Q4
[4]; rat
  LPS % cell toxicity: 0%

## NCCc1c[nH]cn1 [Histamine]
[1]
  inhibition at 10 µM: 21%
[2]; [7]
  inhibition at 10 µM: 27%
[3]
  Quadrant (FIG. 5b): Q4
[4]; rat
  LPS % cell toxicity: 0%

## O=C1c2c(O)ccc(O)c2C(=O)c2c(NCCNCCO)ccc(NCCNCCO)c21 [Mitoxantrone]
[1]; [12]
  inhibition at 10 µM: 113%
[2]; [13]
  inhibition at 10 µM: 122%
[3]; [14]
  Quadrant (FIG. 5b): Q2
[4]; rat
  LPS % cell toxicity: 40%

## Cn1nnc2c(C(N)=O)ncn2c1=O [Temozolomide]
[1]; primary microglia HTS, 10 μM, fibrin-stimulated, cell size >800 μm^2 as marker of activation
  Fibrin % inhibition: −31% and −26%
[3]; HTS of 1907 compounds, quadrant by fibrin and LPS inhibition
  Quadrant (FIG. 5b): Q4
[4]; rat
  LPS % cell toxicity: 0%
